Data: US9738652B2, “Spiro urea compounds as RSV antiviral compounds” (priority 2014, dated 2017)

How the values were obtained:
[1] = system: rgRSV224 virus; assay: Antiviral activity: rgRSV224 (GFP) replication in HeLa cells; conditions: human respiratory syncytial virus, 72 h, read-out: RSV HELA pEC50 (converted)
Description: Black 384-well clear-bottom microtiter plates (Corning, Amsterdam, The Netherlands) were filled via acoustic drop ejection using the echo liquid handler (Labcyte, Sunnyvale, Calif.). 200 nL of compound stock solutions (100% DMSO) were transferred to the assay plates. 9 serial 4-fold dilutions of compound were made, creating per quadrant the same compound concentration. The assay was initiated by adding 10 μL of culture medium to each well (RPMI medium without phenol red, 10% FBS-heat inactivated, 0.04% gentamycin (50 mg/mL). All addition steps are done by using a multidrop dispenser (Thermo Scientific, Erembodegem, Belgium). Next, rgRSV224 virus (MOI=1) diluted in culture medium was added to the plates. rgRSV224 virus is an engineered virus that includes an additional GFP gene (Hallak L K, Spillmann D, Collins P L, Peeples M E. Glycosaminoglycan sulfation requirements for respiratory syncytial virus infection; Journal of virology (2000), 74(22), 10508-13) and was in-licensed from the NIH (Bethesda, Md., USA). Finally, 20 μL of a HeLa cell suspension (3,000 cells/well) were plated. Medium, virus- and mock-infected controls were included in each test. The wells contain 0.05% DMSO per volume. Cells were incubated at 37° C. in a 5% CO2 atmosphere. Three days post-virus exposure, viral replication was quantified by measuring GFP expression in the cells by an in house developed MSM laser microscope (Tibotec, Beerse, Belgium). The EC50 was defined as the 50% inhibitory concentration for GFP expression. In parallel, compounds were incubated for three days in a set of white 384-well microtiter plates (Corning) and the cytotoxicity of compounds in HeLa cells was determined by measuring the ATP content of the cells using the ATPlite kit (Perkin Elmer, Zaventem, Belgium) according to the manufacturer's instructions. The CC50 was defined as the 50% concentration for cytotoxicity.

[2] = Cytotoxicity in HeLa cells (ATPlite, CC50) used for selectivity index; conditions: human
Description: The wells contain 0.05% DMSO per volume. Cells were incubated at 37° C. in a 5% CO2 atmosphere. […] In parallel, compounds were incubated for three days in a set of white 384-well microtiter plates (Corning) and the cytotoxicity of compounds in HeLa cells was determined by measuring the ATP content of the cells using the ATPlite kit (Perkin Elmer, Zaventem, Belgium) according to the manufacturer's instructions. The CC50 was defined as the 50% concentration for cytotoxicity.

Compound | EC50 [1] [nM] | selectivity ratio at 3 days [2]
CC(C)NC(=O)N1CCC2(CC1)C(=O)N(Cc1cc3cc(Cl)ccc3n1CCCS(C)(=O)=O)c1cnccc12 [Co. No. 27, 1′-[[5-chloro-1-(3-methylsulfonylpropyl)indol-2-yl]methyl]-N-isopropyl-2′-oxo-spiro[piperidine-4,3′-pyrrolo[2,3-c]pyridine]-1-carboxamide] | 0.257 | 300000
CC(C)NC(=O)N1CCC2(CC1)C(=O)N(Cc1nc3cc(Cl)ccc3n1CCCC#N)c1cnccc12 [Co. No. 29, 1′-[[5-chloro-1-(3-cyanopropyl)benzimidazol-2-yl]methyl]-N-isopropyl-2′-oxo-spiro[piperidine-4,3′-pyrrolo[2,3-c]pyridine]-1-carboxamide] | 0.0245 | > 4.11e+06
CC(C)(CO)NC(=O)N1CC2(C1)C(=O)N(Cc1cc3cc(Cl)ccc3n1CCCS(C)(=O)=O)c1ccccc12 [Co. No. 13, 1′-[[5-chloro-1-(3-methylsulfonylpropyl)indol-2-yl]methyl]-N-(2-hydroxy-1,1-dimethyl-ethyl)-2′-oxo-spiro[azetidine-3,3′-indoline]-1-carboxamide] | 1 | 43400
CC(C)NC(=O)N1CC2(C1)C(=O)N(Cc1cc3cc(Cl)ccc3n1CCCS(C)(=O)=O)c1ccccc12 [Co. No. 1, 1′-[[5-chloro-1-(3-methylsulfonylpropyl)indol-2-yl]methyl]-N-isopropyl-2′-oxo-spiro[azetidine-3,3′-indoline]-1-carboxamide] | 0.0891 | 357000
O=C(NC1CCOCC1)N1CC2(C1)C(=O)N(Cc1nc3nc(Cl)ccc3n1CCCC(F)(F)F)c1ccccc12 [Co. No. 23, 1′-[[5-chloro-1-(4,4,4-trifluorobutyl)imidazo[4,5-b]pyridin-2-yl]methyl]-2′-oxo-N-tetrahydropyran-4-yl-spiro[azetidine-3,3′-indoline]-1-carboxamide] | 1.62 | > 61800
CC(CO)NC(=O)N1CC2(C1)C(=O)N(Cc1cc3cc(Cl)ccc3n1CCCS(C)(=O)=O)c1ccccc12 (stereo not shown) [Co. No. 14, 1′-[[5-chloro-1-(3-methylsulfonylpropyl)indol-2-yl]methyl]-N-(2-hydroxy-1-methyl-ethyl)-2′-oxo-spiro[azetidine-3,3′-indoline]-1-carboxamide] | 0.575 | 98200
O=C(NC1CC(O)C1)N1CC2(C1)C(=O)N(Cc1nc3nc(Cl)ccc3n1CCCC(F)(F)F)c1ccccc12 (stereo not shown) [Co. No. 24, 1′[[5-chloro-1-(4,4,4-trifluorobutyl)imidazo[4,5-b]pyridin-2-yl]methyl]-N-(3-hydroxycyclobutyl)-2′-oxo-spiro[azetidine-3,3′-indoline]-1-carboxamide] | 1.32 | > 75400
CC(C)NC(=O)N1CC2(C1)C(=O)N(Cc1nc3cc(Cl)ccc3n1CCCC#N)c1ccccc12 [Co. No. 19, 1′-[[5-chloro-1-(3-cyanopropyl)benzimidazol-2-yl]methyl]-N-isopropyl-2′-oxo-spiro[azetidine-3,3′-indoline]-1-carboxamide] | 0.0912 | > 1.11e+06
CS(=O)(=O)CCCn1c(CN2C(=O)C3(CN(C(=O)NCCN4CCOCC4)C3)c3ccccc32)cc2cc(Cl)ccc21 [Co. No. 16, 1′-[[5-chloro-1-(3-methylsulfonylpropyl)indol-2-yl]methyl]-N-(2-morpholinoethyl)-2′-oxo-spiro[azetidine-3,3′-indoline]-1-carboxamide] | 0.339 | 159000
N#CCCCn1c(CN2C(=O)C3(CN(C(=O)N[C@H]4C[C@@H](O)C4)C3)c3ccccc32)cc2cc(Cl)ccc21 [Co. No. 8, 1′-[[5-chloro-1-(3-cyanopropyl)indol-2-yl]methyl]-N-(cis-3-hydroxycyclobutyl)-2′-oxo-spiro[azetidine-3,3′-indoline]-1-carboxamide] | < 0.153 | > 232000
CS(=O)(=O)CCCn1c(CN2C(=O)C3(CN(C(=O)NCC(F)(F)F)C3)c3ccccc32)cc2cc(Cl)ccc21 [Co. No. 12, 1′-[[5-chloro-1-(3-methylsulfonylpropyl)indol-2-yl]methyl]-2′-oxo-N-(2,2,2-trifluoroethyl)spiro[azetidine-3,3′-indoline]-1-carboxamide] | 0.269 | 86900
CN(C)CCNC(=O)N1CC2(C1)C(=O)N(Cc1cc3cc(Cl)ccc3n1CCCS(C)(=O)=O)c1ccccc12 [Co. No. 17, 1′-[[5-chloro-1-(3-methylsulfonylpropyl)indol-2-yl]methyl]-N-[2-(dimethylamino)ethyl]-2′-oxo-spiro[azetidine-3,3′-indoline]-1-carboxamide] | 1.26 | 39300
CNC(=O)N1CCC2(CC1)C(=O)N(Cc1cc3cc(Cl)ccc3n1CCCC#N)c1cnccc12 [Co. No. 25, 1′-[[5-chloro-1-(3-cyanopropyl)indol-2-yl]methyl]-N-methyl-2′-oxo-spiro[piperidine-4,3′-pyrrolo[2,3-c]pyridine]-1-carboxamide] | 0.178 | > 565000
CC(C)(C)OC(=O)N1CCC(NC(=O)N2CC3(C2)C(=O)N(Cc2cc4cc(Cl)ccc4n2CCCC#N)c2ccccc23)CC1 [Co. No. 2, tert-butyl 4-[[1′-[[5-chloro-1-(3-cyanopropyl)indol-2-yl]methyl]-2′-oxo-spiro[azetidine-3,3′-indoline]-1-carbonyl]amino]piperidine-1-carboxylate] | 2 | > 50000
N#CCCCn1c(CN2C(=O)C3(CN(C(=O)NC4CCNCC4)C3)c3ccccc32)cc2cc(Cl)ccc21 [Co. No. 3, 1′-[[5-chloro-1-(3-cyanopropyl)indol-2-yl]methyl]-2′-oxo-N-(4-piperidyl)spiro[azetidine-3,3′-indoline]-1-carboxamide] | 0.631 | 158000
CC(C)NC(=O)N1CC2(C1)C(=O)N(Cc1nc3cc(Cl)ccc3n1CCCS(C)(=O)=O)c1ccccc12 [Co. No. 18, 1′-[[5-chloro-1-(3-methylsulfonylpropyl)benzimidazol-2-yl]methyl]-N-isopropyl-2′-oxo-spiro[azetidine-3,3′-indoline]-1-carboxamide] | 0.0204 | > 4.93e+06
CS(=O)(=O)CCCn1c(CN2C(=O)C3(CN(C(=O)N[C@H]4C[C@@H](O)C4)C3)c3ccccc32)cc2cc(Cl)ccc21 [Co. No. 10, 1′-[[5-chloro-1-(3-methylsulfonylpropyl)indol-2-yl]methyl]-N-(cis-3-hydroxycyclobutyl)-2′-oxo-spiro[azetidine-3,3′-indoline]-1-carboxamide] | < 0.17 | > 505000
N#CCCCn1c(CN2C(=O)C3(CN(C(=O)N[C@H]4C[C@H](O)C4)C3)c3ccccc32)cc2cc(Cl)ccc21 [Co. No. 9, 1′-[[5-chloro-1-(3-cyanopropyl)indol-2-yl]methyl]-N-(trans-3-hydroxycyclobutyl)-2′-oxo-spiro[azetidine-3,3′-indoline]-1-carboxamide] | < 0.153 | > 254000
N#CCCCn1c(CN2C(=O)C3(CN(C(=O)NC4CC(O)C4)C3)c3ccccc32)cc2cc(Cl)ccc21 (stereo not shown) [Co. No. 7, 1′-[[5-chloro-1-(3-cyanopropyl)indol-2-yl]methyl]-N-(3-hydroxycyclobutyl)-2′-oxo-spiro[azetidine-3,3′-indoline]-1-carboxamide] | 0.407 | 103000
CN1CCC(NC(=O)N2CC3(C2)C(=O)N(Cc2cc4cc(Cl)ccc4n2CCCC#N)c2ccccc23)CC1 [Co. No. 5, 1′-[[5-chloro-1-(3-cyanopropyl)indol-2-yl]methyl]-N-(1-methyl-4-piperidyl)-2′-oxo-spiro[azetidine-3,3′-indoline]-1-carboxamide] | 3.16 | 10000
CN(C)CCN(C)C(=O)N1CC2(C1)C(=O)N(Cc1cc3cc(Cl)ccc3n1CCCS(C)(=O)=O)c1ccccc12 [Co. No. 15, 1′-[[5-chloro-1-(3-methylsulfonylpropyl)indol-2-yl]methyl]-N-[2-(dimethylamino)ethyl]-N-methyl-2′-oxo-spiro[azetidine-3,3′-indoline]-1-carboxamide] | 7.59 | 2570
CS(=O)(=O)CCCn1c(CN2C(=O)C3(CN(C(=O)N[C@H]4C[C@H](O)C4)C3)c3ccccc32)cc2cc(Cl)ccc21 [Co. No. 11, 1′-[[5-chloro-1-(3-methylsulfonylpropyl)indol-2-yl]methyl]-N-(trans-3-hydroxycyclobutyl)-2′-oxo-spiro[azetidine-3,3′-indoline]-1-carboxamide] | 0.245 | 300000
N#CCCCn1c(CN2C(=O)C3(CN(C(=O)NC4CCN(CC(F)(F)F)CC4)C3)c3ccccc32)cc2cc(Cl)ccc21 [Co. No. 4, 1′-[[5-chloro-1-(3-cyanopropyl)indol-2-yl]methyl]-2′-oxo-N-[1-(2,2,2-trifluoroethyl)-4-piperidyl]spiro[azetidine-3,3′-indoline]-1-carboxamide] | 1 | 100000
CC(C)NC(=O)N1CC2(C1)C(=O)N(Cc1nc3nc(Cl)ccc3n1CCCCF)c1ccccc12 [Co. No. 20, 1′-[[5-chloro-1-(4-fluorobutyl)imidazo[4,5-b]pyridin-2-yl]methyl]-N-isopropyl-2′-oxo-spiro[azetidine-3,3′-indoline]-1-carboxamide] | 1.26 | > 80200
CC(C)NC(=O)N1CCC2(CC1)C(=O)N(Cc1cc3cc(Cl)ccc3n1CCCC#N)c1cnccc12 [Co. No. 28, 1′-[[5-chloro-1-(3-cyanopropyl)indol-2-yl]methyl]-N-isopropyl-2′-oxo-spiro[piperidine-4,3′-pyrrolo[2,3-c]pyridine]-1-carboxamide] | 2.14 | 25400
N#CCCCn1c(CN2C(=O)C3(CN(C(=O)NC4CCOCC4)C3)c3ccccc32)cc2cc(Cl)ccc21 [Co. No. 6, 1′-[[5-chloro-1-(3-cyanopropyl)indol-2-yl]methyl]-2′-oxo-N-tetrahydropyran-4-yl-spiro[azetidine-3,3′-indoline]-1-carboxamide] | 0.316 | 100000
